Data taken from the supplement of paper PMC10307832.

How the values were obtained:
Experiment in all cases: relative viability (nuclei count vs DMSO), 5 days (fraction); higher = more cells survive
[1] = compound: C1CC(C1)(C(=O)O)C(=O)O.[NH2-].[NH2-].[Pt+2] [Carboplatin] + Nc1nc2[nH]cc(CCc3ccc(C(=O)N[C@@H](CCC(=O)O)C(=O)O)cc3)c2c(=O)[nH]1 [Pemetrexed] (partner 0.2 µM)
Method in brief: (§1)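 Relative viability divides the nuclei count in treated wells by that in vehicle wells. Lung cancer cell lines were seeded in 1536-well plates, dosed by pin tool the next day, and fixed and stained after 5 days in one step with final 0.05% Triton X-100, 1% formaldehyde and 1 ug/ml Hoechst. Dosing was a single drug or a fixed anchor-drug dose plus five library-drug doses (not always all listed) in √10 steps, and values are medians of duplicate plates imaged at 4×.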

[2] = compound: CC[C@H](C)N1C=C(C2=C(C=C(C=C21)C3=CN=C(C=C3)N4CCNCC4)C(=O)NCC5=C(C=C(NC5=O)C)C)C [GSK126] + CC(C)C[C@H](NC(=O)[C@H](Cc1ccccc1)NC(=O)c1cnccn1)B(O)O [Bortezomib] (partner 0.002 µM)
Method in brief: as §1

[3] = compound: CC[C@H](C)N1C=C(C2=C(C=C(C=C21)C3=CN=C(C=C3)N4CCNCC4)C(=O)NCC5=C(C=C(NC5=O)C)C)C [GSK126] + CCNC(=O)c1noc(-c2cc(C(C)C)c(O)cc2O)c1-c1ccc(CN2CCOCC2)cc1 [Luminespib] (partner 0.01 µM)
Method in brief: as §1

[4] = compound: NS(=O)(=O)OC[C@@H]1C[C@@H](n2ccc3c(N[C@H]4CCc5ccccc54)ncnc32)C[C@@H]1O [MLN4924] + CCNC(=O)c1noc(-c2cc(C(C)C)c(O)cc2O)c1-c1ccc(CN2CCOCC2)cc1 [Luminespib] (partner 0.01 µM)
Method in brief: as §1

Cell Line	relative viability ([1]; first compound 0.08 µM)	relative viability ([1]; first compound 0.253 µM)	relative viability ([1]; first compound 0.8 µM)	relative viability ([1]; first compound 2.53 µM)	relative viability ([1]; first compound 8 µM)	relative viability ([2]; first compound 0.08 µM)	relative viability ([2]; first compound 0.253 µM)	relative viability ([2]; first compound 0.8 µM)	relative viability ([2]; first compound 2.53 µM)	relative viability ([2]; first compound 8 µM)	relative viability ([3]; first compound 0.08 µM)	relative viability ([3]; first compound 0.253 µM)	relative viability ([3]; first compound 0.8 µM)	relative viability ([3]; first compound 2.53 µM)	relative viability ([3]; first compound 8 µM)	relative viability ([4]; first compound 0.04 µM)	relative viability ([4]; first compound 0.1265 µM)	relative viability ([4]; first compound 0.4 µM)	relative viability ([4]; first compound 1.265 µM)	relative viability ([4]; first compound 4 µM)
201T	0.362	0.343	0.344	0.36	0.327	1.09	1.12	1.07	1.2	0.959	1.01	1.05	1.08	1.12	1.2	1.15	0.916	0.887	0.384	0.29
A-427	1.03	1.01	0.942	0.897	1.05	1.06	0.977	1.02	0.989	0.973	1.29	0.87	0.82	0.884	0.769	0.465	0.245	0.263	0.178	0.216
ABC-1						0.319	0.35	0.336	0.309	0.268	0.737	0.449	0.575	1.13	0.955	1.14	0.548	0.306	0.184	0.24
Calu-6						1.18	0.949	1.1	1.2	1.04										
EBC-1						0.61	0.542	0.529	0.563	0.411										
HCC-78	0.898	0.905	0.893	0.883	0.854	0.464	0.466	0.374	0.562	0.389										
HCC-366	0.156	0.153	0.164	0.18	0.145	1.1	1.05	1.03	1.06	1.05										
IA-LM						0.98	0.789	0.847	0.796	0.788										
LK-2	0.336	0.314	0.273	0.233	0.289						0.217	0.171	0.171	0.204	0.188	0.234	0.173	0.192	0.212	0.182
NCI-H358	0.179	0.21	0.188	0.16	0.174						0.39	0.382	0.366	0.422	0.283	0.338	0.422	0.214	0.105	0.111
NCI-H522	0.814	0.924	1.11	1.01	0.913						1.2	1.2	1.13	1.19	1.13	1.08	0.709	0.851	0.433	0.467
NCI-H727						1.02	0.78	0.899	0.854	0.88	0.482	0.375	0.421	0.345	0.336	0.31	0.382	0.368	0.383	0.235
NCI-H1299						1.03	1.01	0.999	0.969	1.06										
NCI-H1395	1.02	0.983	0.814	0.61	0.534						0.64	0.62	0.606	0.689	0.545	0.867	0.619	0.539	0.429	0.346
NCI-H1623											0.617	0.425	0.502	0.512	0.42	0.523	0.477	0.454	0.282	0.293
NCI-H1648	0.747	0.737	0.733	0.587	0.65															
NCI-H1703						0.444	0.339	0.191	0.407	0.209										
NCI-H1793	1.1	0.908	0.918	0.866	0.93						0.152	0.177	0.164	0.258	0.152	0.162	0.125	0.182	0.297	0.148
NCI-H1944	0.644	0.557	0.643	0.526	0.485						0.873	0.72	0.621	0.678	0.923	0.783	0.482	0.578	0.171	0.168
NCI-H2170	0.246	0.252	0.265	0.286	0.236						0.655	0.924	0.595	0.546	0.722	0.631	0.443	0.269	0.172	0.147
NCI-H2342	0.786	0.844	0.791	0.834	0.762						0.731	0.875	0.799	0.857	0.878	0.773	0.757	0.682	0.723	0.464
SK-MES-1	1.04	0.928	0.92	0.972	0.843						0.856	0.76	0.823	0.866	0.908	0.866	0.694	0.551	0.173	0.195
SW 900	0.495	0.468	0.488	0.525	0.496						0.206	0.188	0.165	0.173	0.213	0.148	0.183	0.154	0.152	0.178
